Results from US20230201235A1, “INHIBITION OF NIDOVIRUSES THAT ENCODE NSP15” (The University of Chicago, priority 2020, published 2023).

Legend:
Nsp15 [1] = target: T1, Nsp15 (Severe acute respiratory syndrome coronavirus 2, UniProt P0DTD1); assay: Nsp15 differential scanning fluorimetry (DSF) assay; assay type: binding; details: 10 μM Nsp15, 1 mM ligand, 10 mM MnCl2; for melting temperature (Tm) of Nsp15 in presence of ligand: same Tm as control
Experimental: The Nsp15 differential scanning fluorimetry (DSF) assays were performed in a buffer 20 mM Tris pH 7.5, 100 mM NaCl, 1 mM TCEP that was supplemented with SYPRO™ Orange protein gel stain (Invitrogen, Carlsbad, Calif.) to 5× final concentration. 10 μM of the Nsp15 was used with the addition of each of 1 mM of tipiracil, 5′GpU, 5′UMP, 3′UMP, and TMP to get final molar ratio of protein to ligand 1:100. Additionally, the samples with ligands were supplemented with 10 mM MnCl2. After 30 min of incubation of samples at room-temperature, fluorescence measurements were done using CFX CONNECT™ Real-Time System (BioRad, Hercules, Calif.). Fluorescent signal was detected with temperature rate 1° C. per 60 sec. Samples were measured in triplicate, and the representative standard deviation of measurements are depicted for Nsp15 control sample and complex of the Nsp15 with addition of tipiracil.

SARS-CoV-2 Nsp15 [2] = target: T2, SARS-CoV-2 Nsp15 (Severe acute respiratory syndrome coronavirus 2, UniProt P0DTD1); assay type: binding; details: co-crystal structures, Table 1
SARS-CoV-2 Nsp15 [3] = target: T2, SARS-CoV-2 Nsp15; assay: Radioactivity-based endoribonuclease assay; assay type: biochemical
A549-hACE2 cells = details: 1-50 μM
Nsp15 [4] = target: T1, Nsp15; assay: Fluorescence-based endoribonuclease assay; assay type: biochemical, SARS-CoV-2
Experimental: The oligonucleotide dArUdAdA with 5′-6-FAM and 3′-6-TAMRA was synthetized by GenScript Biotech (Piscataway, N.J.). The concentration of 0.5 μM substrate was used with 2 μM Nsp15 in a buffer containing 20 mM HEPES at pH 7.8, 100 mM NaCl, and 5 mM MnCl2. Detection of the emission of FAM fluorescence signal was done on CFX CONNECT™ Real-Time System (Bio-Rad Laboratories, Hercules, Calif.).
Cleavage of oligonucleotide dArUdAdA with 5′-6-FAM and 3′-6-TAMRA substrate was tested using polyacrylamide gel electrophoresis. The concentration of labeled substrate was […], and the Nsp15 concentration varied to achieve different molar ratios of substrate to Nsp15. Samples were mixed in a buffer with 20 mM HEPES at pH 7.8, 100 mM NaCl, and 5 mM MnCl2. After 10 minutes of incubation, samples were loaded on NUPAGE Tris-Acetate 3-8% gel, and the electrophoresis was done on 80 V for 1 h. The detection of FAM emission on gel was performed using the Gel DOC™ EZ System (Bio-Rad Laboratories, Hercules, Calif.).

SARS-CoV-2 = assay: Whole cell assays: spike protein immunostaining and viral RNA qRT-PCR; assay type: cell-based

Row | Compound | melting temperature (Tm) of Nsp15 in presence of ligand (Nsp15 [1]) | binding to the active site of Nsp15 in the crystal structure (SARS-CoV-2 Nsp15 [2]) | IC50 (SARS-CoV-2 Nsp15 [3]) [µM] | inhibition of cleavage reaction at higher Mn2+ concentration (SARS-CoV-2 Nsp15 [3]; octamer RNA, higher Mn2+ ion concentration (15 mM MnCl2)) | shift of Nsp15 denaturation profile to higher temperatures (Nsp15 [1]; versus control) [°C] | effect on viability of cells (A549-hACE2 cells) | IC50 (Nsp15 [4]) [µM] | inhibition of virus (spike protein and RNA expression) (SARS-CoV-2)
1 | Cc1cn([C@H]2C[C@H](OP(=O)(O)O)[C@@H](CO)O2)c(=O)[nH]c1=O [3′TMP] | approximately 60.5 °C | – | – | – | – | – | – | –
2 | O=c1ccn([C@@H]2O[C@H](CO)[C@@H](OP(=O)(O)O)[C@H]2O)c(=O)[nH]1 [3′UMP, 3′-uridylic acid] | approximately 60.5 °C | binds directly in the active site of Nsp15 | – | – | – | – | – | –
3 | O=c1ccn([C@@H]2O[C@H](COP(=O)(O)O)[C@@H](O)[C@H]2O)c(=O)[nH]1 [5′UMP, 5′-uridylic acid] | approximately 60.5 °C | binds directly in the active site of Nsp15 | – | – | – | – | – | –
4 | N=C1CCCN1Cc1[nH]c(=O)[nH]c(=O)c1Cl [tipiracil, 5-chloro-6-[(2-imino-1-pyrrolidinyl)methyl]-2,4(1H,3H)-pyrimidinedione] | approximately 60.5 °C | binds directly in the active site of Nsp15 | 7.5 | no inhibition | 0.5 | did not affect the viability of cells | 72 | modest
5 | uridine 2′,3′-vanadate [UV] | – | binds directly in the active site of Nsp15 | – | – | – | – | – | –
